This passage reports Activity results from ChEMBL document CHEMBL1141300, “Putrescine bisamides from Aglaia gigantea” (J Nat Prod, 2007).

The test system of the experiment is Spodoptera littoralis. Briefly: Insecticidal activity against Spodoptera littoralis after 6 days. It is filed as functional, organism-based.

Activity calls are given as the source filed them. The calls are words filed in the database; no cut-off is given here.

In the case of `C=C(C(=O)NCCCCNC(=O)/C=C/c1ccccc1)[C@@H](O)CO`, the result was inactive.

Regarding `CC1=CC(O)N(CCCCNC(=O)/C=C/c2ccccc2)C1=O` (configuration not stated), the result was inactive.
